Holding throughout (format): cell-based
Holding throughout (conditions): compounds at 50 nM and 500 nM

The target of one assay is T1, IKZF3 (Homo sapiens, UniProt Q96SW2+Q9UKT9).
T1 construct: The supernatant was aspirated as the extracted total cell protein; endogenous in cells; host or cells: human peripheral blood mononuclear cells (hPBMCs)
Nature of the assay: Western blot degradation of IKZF3 in hPBMCs (24 h). Put shortly:
(§1)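 Thawed human PBMCs, 1×10^6 cells/mL; cpd 50 nM or 500 nM, 24 h; RIPA lysis, BCA, SDS-PAGE, NC transfer, immunoblot. Readout: grayscale/internal control → % remaining; degradation = 1 − remaining.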
On the technique in general: A western blot detects proteins with antibodies after separation by electrophoresis.

In the next assay the target is T2, IKZF1 (Homo sapiens, UniProt Q13422+Q96SW2).
T2 construct: The supernatant was aspirated as the extracted total cell protein; endogenous in cells; host or cells: human peripheral blood mononuclear cells (hPBMCs)
T2 sequence (Q13422 whole entry): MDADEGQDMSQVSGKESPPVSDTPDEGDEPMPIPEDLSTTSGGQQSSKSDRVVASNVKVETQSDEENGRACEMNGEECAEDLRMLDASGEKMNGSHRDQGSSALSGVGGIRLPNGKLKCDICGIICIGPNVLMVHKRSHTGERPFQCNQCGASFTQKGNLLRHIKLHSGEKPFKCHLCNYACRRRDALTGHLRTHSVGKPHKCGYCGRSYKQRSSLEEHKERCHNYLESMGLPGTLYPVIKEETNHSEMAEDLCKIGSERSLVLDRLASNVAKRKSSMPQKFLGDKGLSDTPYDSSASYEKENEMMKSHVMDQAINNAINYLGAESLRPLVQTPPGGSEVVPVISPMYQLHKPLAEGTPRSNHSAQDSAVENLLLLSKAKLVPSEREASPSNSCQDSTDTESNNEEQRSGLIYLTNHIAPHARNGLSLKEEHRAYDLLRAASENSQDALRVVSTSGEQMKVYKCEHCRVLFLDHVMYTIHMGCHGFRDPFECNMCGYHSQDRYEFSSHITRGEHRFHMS
T2 sequence (Q96SW2 whole entry): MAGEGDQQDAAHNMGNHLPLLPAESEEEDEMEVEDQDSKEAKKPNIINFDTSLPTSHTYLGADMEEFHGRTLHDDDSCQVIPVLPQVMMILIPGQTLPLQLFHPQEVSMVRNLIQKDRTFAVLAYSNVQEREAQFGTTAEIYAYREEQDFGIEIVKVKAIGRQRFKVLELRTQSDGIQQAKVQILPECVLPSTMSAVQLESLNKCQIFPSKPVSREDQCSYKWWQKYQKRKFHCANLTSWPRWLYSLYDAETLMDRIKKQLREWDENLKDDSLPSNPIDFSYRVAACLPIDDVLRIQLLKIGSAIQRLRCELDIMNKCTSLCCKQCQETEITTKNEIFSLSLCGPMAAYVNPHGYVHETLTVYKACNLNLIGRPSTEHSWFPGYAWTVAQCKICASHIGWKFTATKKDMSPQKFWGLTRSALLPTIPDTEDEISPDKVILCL
T2 sequence (Q16531 whole entry partner): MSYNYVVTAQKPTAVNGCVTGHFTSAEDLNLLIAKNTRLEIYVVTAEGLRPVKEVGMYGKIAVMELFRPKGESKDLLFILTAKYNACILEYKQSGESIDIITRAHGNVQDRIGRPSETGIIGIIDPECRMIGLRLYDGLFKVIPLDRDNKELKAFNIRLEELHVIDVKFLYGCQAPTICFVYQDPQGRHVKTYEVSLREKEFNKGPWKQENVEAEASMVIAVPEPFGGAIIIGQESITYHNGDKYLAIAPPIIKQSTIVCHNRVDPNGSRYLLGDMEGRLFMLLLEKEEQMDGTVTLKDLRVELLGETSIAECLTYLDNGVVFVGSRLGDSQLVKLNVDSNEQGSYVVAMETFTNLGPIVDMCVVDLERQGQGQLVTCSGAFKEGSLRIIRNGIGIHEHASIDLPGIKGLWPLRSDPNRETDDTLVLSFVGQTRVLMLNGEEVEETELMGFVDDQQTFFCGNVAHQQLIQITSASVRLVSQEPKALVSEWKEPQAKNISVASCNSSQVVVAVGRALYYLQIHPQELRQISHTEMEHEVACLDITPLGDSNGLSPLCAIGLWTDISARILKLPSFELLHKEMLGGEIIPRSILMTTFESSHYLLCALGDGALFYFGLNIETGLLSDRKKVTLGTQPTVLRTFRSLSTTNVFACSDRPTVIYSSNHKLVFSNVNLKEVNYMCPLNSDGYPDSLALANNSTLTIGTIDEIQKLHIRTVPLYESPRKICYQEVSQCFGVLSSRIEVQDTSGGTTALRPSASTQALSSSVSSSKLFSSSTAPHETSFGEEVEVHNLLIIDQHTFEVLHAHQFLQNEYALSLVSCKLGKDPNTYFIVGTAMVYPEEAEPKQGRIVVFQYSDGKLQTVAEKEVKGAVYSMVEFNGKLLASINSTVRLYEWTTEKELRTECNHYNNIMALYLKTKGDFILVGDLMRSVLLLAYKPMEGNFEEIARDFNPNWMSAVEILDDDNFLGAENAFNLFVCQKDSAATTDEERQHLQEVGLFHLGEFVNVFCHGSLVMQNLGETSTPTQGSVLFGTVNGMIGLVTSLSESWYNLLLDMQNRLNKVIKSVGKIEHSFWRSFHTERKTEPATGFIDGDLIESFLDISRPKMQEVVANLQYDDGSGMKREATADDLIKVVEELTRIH
Nature of the assay: Western blot degradation of IKZF1 in hPBMCs (24 h). The method, boiled down:
as §1

The next assay concerns the target T3, IKZF2 (Homo sapiens, UniProt Q96SW2+Q9UKS7).
T3 construct: The supernatant was aspirated as the extracted total cell protein; endogenous in cells; host or cells: human peripheral blood mononuclear cells (hPBMCs)
Nature of the assay: Western blot degradation of IKZF2 in hPBMCs (24 h). Put shortly: as §1

Another assay deals with T4, WEE1 (Homo sapiens, UniProt P30291+Q96SW2).
T4 construct: The supernatant was aspirated as the extracted total cell protein; endogenous in cells; host or cells: human peripheral blood mononuclear cells (hPBMCs)
T4 sequence (P30291 whole entry): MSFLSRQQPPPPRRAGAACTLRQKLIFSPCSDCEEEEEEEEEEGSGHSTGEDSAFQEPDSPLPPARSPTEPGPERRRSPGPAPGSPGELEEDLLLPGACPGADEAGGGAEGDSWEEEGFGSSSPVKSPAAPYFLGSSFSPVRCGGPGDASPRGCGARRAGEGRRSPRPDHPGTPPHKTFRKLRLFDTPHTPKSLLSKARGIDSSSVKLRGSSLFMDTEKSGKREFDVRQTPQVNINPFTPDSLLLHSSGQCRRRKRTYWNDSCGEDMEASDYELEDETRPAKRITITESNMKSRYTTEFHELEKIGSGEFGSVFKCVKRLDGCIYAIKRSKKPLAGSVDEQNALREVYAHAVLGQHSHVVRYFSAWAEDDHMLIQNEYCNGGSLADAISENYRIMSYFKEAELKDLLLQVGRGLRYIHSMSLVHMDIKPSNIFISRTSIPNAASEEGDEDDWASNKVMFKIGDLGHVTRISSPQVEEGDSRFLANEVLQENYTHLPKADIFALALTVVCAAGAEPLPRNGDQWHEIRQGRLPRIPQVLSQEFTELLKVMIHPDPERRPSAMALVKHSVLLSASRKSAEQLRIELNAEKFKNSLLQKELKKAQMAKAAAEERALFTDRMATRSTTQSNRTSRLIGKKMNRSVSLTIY
T4 sequence (Q96SW2 whole entry): as the sequence (Q96SW2 whole entry) above
T4 sequence (Q16531 whole entry partner): as the sequence (Q16531 whole entry partner) above
Nature of the assay: Western blot degradation of WEE1 in hPBMCs (24 h). Put shortly:
as §1

Another assay deals with T5, CK1α (Homo sapiens, UniProt P48729+Q96SW2).
T5 construct: The supernatant was aspirated as the extracted total cell protein; endogenous in cells; host or cells: human peripheral blood mononuclear cells (hPBMCs)
T5 sequence (P48729 whole entry): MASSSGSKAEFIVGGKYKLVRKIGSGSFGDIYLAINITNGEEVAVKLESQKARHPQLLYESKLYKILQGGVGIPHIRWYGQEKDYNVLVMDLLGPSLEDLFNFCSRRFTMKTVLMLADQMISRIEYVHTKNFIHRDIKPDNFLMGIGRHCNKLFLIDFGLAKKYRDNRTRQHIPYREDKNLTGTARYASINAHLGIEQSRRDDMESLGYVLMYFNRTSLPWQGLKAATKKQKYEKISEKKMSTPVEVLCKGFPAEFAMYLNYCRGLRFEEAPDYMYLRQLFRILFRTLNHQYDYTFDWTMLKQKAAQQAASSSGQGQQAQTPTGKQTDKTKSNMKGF
T5 sequence (Q96SW2 whole entry): as the sequence (Q96SW2 whole entry) above
T5 sequence (Q16531 whole entry partner): as the sequence (Q16531 whole entry partner) above
Description: Western blot degradation of CK1α in hPBMCs (24 h). The method, boiled down:
as §1

A further assay concerns the target T6, GSPT1 (Homo sapiens, UniProt P15170+Q96SW2).
T6 construct: The supernatant was aspirated as the extracted total cell protein; endogenous in cells; host or cells: human peripheral blood mononuclear cells (hPBMCs)
Description: Western blot degradation of GSPT1 in hPBMCs (24 h). The method, boiled down: as §1

The text below walks through data of patent publication US20260356819A1, “OXOISOINDOLINYL-SUBSTITUTED […] DERIVATIVE AND USE THEREOF” (GLUETACS THERAPEUTICS (SHANGHAI) CO., LTD., priority 2023, published 2026).

T6 sequence (P15170 whole entry): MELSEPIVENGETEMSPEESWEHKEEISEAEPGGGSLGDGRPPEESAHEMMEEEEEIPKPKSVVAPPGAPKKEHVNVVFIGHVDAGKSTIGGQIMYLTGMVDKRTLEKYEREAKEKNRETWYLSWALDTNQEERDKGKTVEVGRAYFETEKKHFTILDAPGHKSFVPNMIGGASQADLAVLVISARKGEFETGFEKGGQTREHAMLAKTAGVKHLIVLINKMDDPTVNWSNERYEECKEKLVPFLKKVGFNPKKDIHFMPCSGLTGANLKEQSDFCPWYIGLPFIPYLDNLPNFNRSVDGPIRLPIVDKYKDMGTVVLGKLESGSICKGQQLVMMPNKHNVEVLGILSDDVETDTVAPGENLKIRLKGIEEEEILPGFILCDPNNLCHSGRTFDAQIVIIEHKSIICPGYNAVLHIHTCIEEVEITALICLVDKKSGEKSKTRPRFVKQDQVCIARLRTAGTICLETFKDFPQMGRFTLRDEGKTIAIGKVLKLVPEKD
T6 sequence (Q96SW2 whole entry): as the sequence (Q96SW2 whole entry) above
T6 sequence (Q16531 whole entry partner): as the sequence (Q16531 whole entry partner) above
T3 sequence (Q9UKS7 whole entry): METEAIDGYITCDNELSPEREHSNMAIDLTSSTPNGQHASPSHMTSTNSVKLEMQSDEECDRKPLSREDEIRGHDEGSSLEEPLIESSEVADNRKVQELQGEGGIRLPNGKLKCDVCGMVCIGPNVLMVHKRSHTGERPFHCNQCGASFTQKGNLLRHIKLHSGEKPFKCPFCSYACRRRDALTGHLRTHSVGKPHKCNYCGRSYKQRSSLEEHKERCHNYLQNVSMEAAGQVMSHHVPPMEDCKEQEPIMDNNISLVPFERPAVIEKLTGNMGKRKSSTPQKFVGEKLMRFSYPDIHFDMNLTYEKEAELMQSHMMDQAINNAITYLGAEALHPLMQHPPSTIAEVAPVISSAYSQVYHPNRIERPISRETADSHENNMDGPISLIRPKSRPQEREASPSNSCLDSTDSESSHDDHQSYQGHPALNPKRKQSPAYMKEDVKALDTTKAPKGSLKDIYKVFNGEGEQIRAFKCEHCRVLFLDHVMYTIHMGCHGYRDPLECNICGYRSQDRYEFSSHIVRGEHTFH
T3 sequence (Q96SW2 whole entry): as the sequence (Q96SW2 whole entry) above
T3 sequence (Q16531 whole entry partner): as the sequence (Q16531 whole entry partner) above

As for `CC1(C)CCC(CN2CC3CCC(C2)N3Cc2ccc3c(c2)C(=O)N(N2CCC(=O)NC2=O)C3=O)=C(c2ccc(Cl)cc2)C1` [GT-07333, 5-((3-((4′-chloro-5,5-dimethyl-3,4,5,6-tetrahydro-[1,1′-biphenyl]-2-yl)methyl)-3,8-diazabicyclo[3.2.1]octan-8-yl)methyl)-2-(2,4-dioxotetrahydropyrimidin-1(2H)-yl)isoindoline-1,3-dione], the “IKZF3 substrate protein remaining %” value at IKZF3 is recorded as “B (80%< substrate protein remaining % ≤100%)”. Moreover, the “IKZF1 substrate protein remaining %” value at IKZF1 was “B (80%< substrate protein remaining % ≤100%)”. Also, the “IKZF2 substrate protein remaining %” value at IKZF2 was “B (80%< substrate protein remaining % ≤100%)”. The “WEE1 substrate protein remaining %” value on WEE1 is on record as “B (80%< substrate protein remaining % ≤100%)”. Further, at CK1α, the “CK1α substrate protein remaining %” value is “B (80%< substrate protein remaining % ≤100%)”. Further, the “GSPT1 substrate protein remaining %” value at GSPT1 is given as “A (0% ≤ substrate protein remaining % ≤80%)”.

For the compound `CC1(C)CCC(CN2CC3CCC2CN3Cc2ccc3c(c2)CN(N2CCC(=O)NC2=O)C3=O)=C(c2ccc(Cl)cc2)C1` (stereo not drawn) [GT-07331, 1-(5-((5-((4′-chloro-5,5-dimethyl-3,4,5,6-tetrahydro-[1,1′-biphenyl]-2-yl)methyl)-2,5-diazabicyclo[2.2.2]octan-2-yl)methyl)-1-oxoisoindolin-2-yl)dihydropyrimidine-2,4(1H,3H)-dione], on IKZF3, the “IKZF3 substrate protein remaining %” value is on record as “A (0% ≤ substrate protein remaining % ≤80%)”. Also, on IKZF1, the “IKZF1 substrate protein remaining %” value is on record as “A (0% ≤ substrate protein remaining % ≤80%)”. The “IKZF2 substrate protein remaining %” value on IKZF2 is “B (80%< substrate protein remaining % ≤100%)”. Besides, the “WEE1 substrate protein remaining %” value on WEE1 is given as “A (0% ≤ substrate protein remaining % ≤80%)”. Further, the “CK1α substrate protein remaining %” value on CK1α was “A (0% ≤ substrate protein remaining % ≤80%)”. In addition, the “GSPT1 substrate protein remaining %” value on GSPT1 was “A (0% ≤ substrate protein remaining % ≤80%)”.

On to `O=C1CCN(N2C(=O)c3ccc(CN4CCC(c5ccccc5C(F)(F)F)CC4)cc3C2=O)C(=O)N1` [GT-06879, 2-(2,4-dioxotetrahydropyrimidin-1(2H)-yl)-5-((4-(2-(trifluoromethyl)phenyl)piperidin-1-yl)methyl)isoindoline-1,3-dione], for which the “IKZF3 substrate protein remaining %” value at IKZF3 is “B (80%< substrate protein remaining % ≤100%)”. For the same compound, the “IKZF1 substrate protein remaining %” value on IKZF1 is “B (80%< substrate protein remaining % ≤100%)”. Further, the “IKZF2 substrate protein remaining %” value at IKZF2 is reported as “B (80%< substrate protein remaining % ≤100%)”. Besides, on WEE1, the “WEE1 substrate protein remaining %” value is “B (80%< substrate protein remaining % ≤100%)”. Also, the “CK1α substrate protein remaining %” value on CK1α was “B (80%< substrate protein remaining % ≤100%)”. Moreover, the “GSPT1 substrate protein remaining %” value on GSPT1 is reported as “A (0% ≤ substrate protein remaining % ≤80%)”.

Regarding `CC1CN(C(c2ccccc2)c2ccccc2)CC(C)N1Cc1ccc2c(c1)CN(N1CCC(=O)NC1=O)C2=O` (stereo not drawn) [GT-07433, 1-(5-((4-benzhydryl-2,6-dimethylpiperazin-1-yl)methyl)-1-oxoisoindolin-2-yl)dihydropyrimidine-2,4(1H,3H)-dione], at IKZF3, the “IKZF3 substrate protein remaining %” value is given as “B (80%< substrate protein remaining % ≤100%)”. The “IKZF1 substrate protein remaining %” value at IKZF1 is reported as “B (80%< substrate protein remaining % ≤100%)”. On IKZF2, the “IKZF2 substrate protein remaining %” value is recorded as “A (0% ≤ substrate protein remaining % ≤80%)”. On WEE1, the “WEE1 substrate protein remaining %” value is reported as “B (80%< substrate protein remaining % ≤100%)”. Besides, the “CK1α substrate protein remaining %” value at CK1α is on record as “A (0% ≤ substrate protein remaining % ≤80%)”. For the same compound, the “GSPT1 substrate protein remaining %” value on GSPT1 is “B (80%< substrate protein remaining % ≤100%)”.

In the case of `O=C1CCN(N2C(=O)c3ccc(CN4CCN(c5nc6c(c(N7CCOCC7)n5)SCC6)CC4)cc3C2=O)C(=O)N1` [GT-08451, 2-(2,4-dioxotetrahydropyrimidin-1(2H)-yl)-5-((4-(4-morpholino-6,7-dihydrothieno[3,2-d]pyrimidin-2-yl)piperazin-1-yl)methyl)isoindoline-1,3-dione], the “IKZF3 substrate protein remaining %” value on IKZF3 was “A (0% ≤ substrate protein remaining % ≤80%)”. Further, the “IKZF1 substrate protein remaining %” value at IKZF1 was “B (80%< substrate protein remaining % ≤100%)”. The “IKZF2 substrate protein remaining %” value at IKZF2 was “B (80%< substrate protein remaining % ≤100%)”. The “WEE1 substrate protein remaining %” value on WEE1 is listed as “B (80%< substrate protein remaining % ≤100%)”. Moreover, the “CK1α substrate protein remaining %” value on CK1α was “A (0% ≤ substrate protein remaining % ≤80%)”. Besides, the “GSPT1 substrate protein remaining %” value at GSPT1 is “B (80%< substrate protein remaining % ≤100%)”.

As to `O=C1CCN(N2Cc3cc(CN4C5CCC4CN(C(c4ccccc4)c4ccccc4)C5)ccc3C2=O)C(=O)N1` [GT-06454, 1-(5-((3-benzhydryl-3,8-diazabicyclo[3.2.1]octan-8-yl)methyl)-1-oxoisoindolin-2-yl)dihydropyrimidine-2,4(1H,3H)-dione], at IKZF3, the “IKZF3 substrate protein remaining %” value is “B (80%< substrate protein remaining % ≤100%)”. Further, the “IKZF1 substrate protein remaining %” value on IKZF1 is “B (80%< substrate protein remaining % ≤100%)”. Besides, the “IKZF2 substrate protein remaining %” value at IKZF2 was “B (80%< substrate protein remaining % ≤100%)”. Further, at WEE1, the “WEE1 substrate protein remaining %” value was “A (0% ≤ substrate protein remaining % ≤80%)”. Moreover, the “CK1α substrate protein remaining %” value at CK1α was “B (80%< substrate protein remaining % ≤100%)”. In addition, the “GSPT1 substrate protein remaining %” value at GSPT1 is listed as “B (80%< substrate protein remaining % ≤100%)”.

Turning to `Cc1nc(C2CCN(Cc3ccc4c(c3)C(=O)N(N3CCC(=O)NC3=O)C4=O)CC2)c2c(-c3ccccc3)csc2n1` [GT-08110, 2-(2,4-dioxotetrahydropyrimidin-1(2H)-yl)-5-((4-(2-methyl-5-phenylthieno[2,3-d]pyrimidin-4-yl)piperidin-1-yl)methyl)isoindoline-1,3-dione], the “IKZF3 substrate protein remaining %” value on IKZF3 is “A (0% ≤ substrate protein remaining % ≤80%)”. Moreover, the “IKZF1 substrate protein remaining %” value at IKZF1 is “A (0% ≤ substrate protein remaining % ≤80%)”. At IKZF2, the “IKZF2 substrate protein remaining %” value was “A (0% ≤ substrate protein remaining % ≤80%)”. Moreover, the “WEE1 substrate protein remaining %” value at WEE1 is “A (0% ≤ substrate protein remaining % ≤80%)”. Besides, the “CK1α substrate protein remaining %” value on CK1α was “A (0% ≤ substrate protein remaining % ≤80%)”. For the same compound, the “GSPT1 substrate protein remaining %” value on GSPT1 is recorded as “A (0% ≤ substrate protein remaining % ≤80%)”.

`O=C1CCN(N2C(=O)c3ccc(CN4CCN(c5cccc(Cl)c5Cl)CC4)cc3C2=O)C(=O)N1` [GT-04854, 5-((4-(2,3-dichlorophenyl)piperazin-1-yl)methyl)-2-(2,4-dioxotetrahydropyrimidin-1(2H)-yl)isoindoline-1,3-dione]: the “IKZF3 substrate protein remaining %” value on IKZF3 is “B (80%< substrate protein remaining % ≤100%)”. The “IKZF1 substrate protein remaining %” value at IKZF1 is reported as “A (0% ≤ substrate protein remaining % ≤80%)”. Moreover, the “IKZF2 substrate protein remaining %” value at IKZF2 was “A (0% ≤ substrate protein remaining % ≤80%)”. For the same compound, at WEE1, the “WEE1 substrate protein remaining %” value is given as “A (0% ≤ substrate protein remaining % ≤80%)”. For the same compound, the “CK1α substrate protein remaining %” value on CK1α is given as “B (80%< substrate protein remaining % ≤100%)”. Also, the “GSPT1 substrate protein remaining %” value on GSPT1 is given as “A (0% ≤ substrate protein remaining % ≤80%)”.

In the case of `Cc1csc2ncnc(C3=CCN(Cc4ccc5c(c4)C(=O)N(N4CCC(=O)NC4=O)C5=O)CC3)c12` [GT-08428, 2-(2,4-dioxotetrahydropyrimidin-1(2H)-yl)-5-((4-(5-methylthieno[2,3-d]pyrimidin-4-yl)-3,6-dihydropyridin-1(2H)-yl)methyl)isoindoline-1,3-dione], at IKZF3, the “IKZF3 substrate protein remaining %” value is listed as “A (0% ≤ substrate protein remaining % ≤80%)”. For the same compound, at IKZF1, the “IKZF1 substrate protein remaining %” value was “B (80%< substrate protein remaining % ≤100%)”. For the same compound, the “IKZF2 substrate protein remaining %” value on IKZF2 is reported as “A (0% ≤ substrate protein remaining % ≤80%)”. The “WEE1 substrate protein remaining %” value on WEE1 was “A (0% ≤ substrate protein remaining % ≤80%)”. The “CK1α substrate protein remaining %” value on CK1α is “B (80%< substrate protein remaining % ≤100%)”. Further, the “GSPT1 substrate protein remaining %” value at GSPT1 is given as “B (80%< substrate protein remaining % ≤100%)”.

Turning to `Cc1ccc(N2CCN(Cc3ccc4c(c3)C(=O)N(N3CCC(=O)NC3=O)C4=O)CC2)s1` [GT-05309, 2-(2,4-dioxotetrahydropyrimidin-1(2H)-yl)-5-((4-(5-methylthiophen-2-yl)piperazin-1-yl)methyl)isoindoline-1,3-dione], the “IKZF3 substrate protein remaining %” value on IKZF3 is “B (80%< substrate protein remaining % ≤100%)”. Besides, at IKZF1, the “IKZF1 substrate protein remaining %” value is on record as “B (80%< substrate protein remaining % ≤100%)”. At IKZF2, the “IKZF2 substrate protein remaining %” value is recorded as “B (80%< substrate protein remaining % ≤100%)”. Further, the “WEE1 substrate protein remaining %” value at WEE1 is listed as “B (80%< substrate protein remaining % ≤100%)”. Moreover, at CK1α, the “CK1α substrate protein remaining %” value was “B (80%< substrate protein remaining % ≤100%)”. For the same compound, at GSPT1, the “GSPT1 substrate protein remaining %” value was “A (0% ≤ substrate protein remaining % ≤80%)”.

On to `O=C1CCN(N2Cc3cc(CN4CCN(C(c5ccc(Cl)cc5)c5ccc(Cl)cc5)CC4)ccc3C2=O)C(=O)N1` [GT-04895, 1-(5-((4-(bis(4-chlorophenyl)methyl)piperazin-1-yl)methyl)-1-oxoisoindolin-2-yl)dihydropyrimidine-2,4(1H,3H)-dione], for which the “IKZF3 substrate protein remaining %” value on IKZF3 is “B (80%< substrate protein remaining % ≤100%)”. Further, the “IKZF1 substrate protein remaining %” value at IKZF1 was “A (0% ≤ substrate protein remaining % ≤80%)”. The “IKZF2 substrate protein remaining %” value on IKZF2 is listed as “A (0% ≤ substrate protein remaining % ≤80%)”. On WEE1, the “WEE1 substrate protein remaining %” value is listed as “B (80%< substrate protein remaining % ≤100%)”. Further, the “CK1α substrate protein remaining %” value on CK1α was “B (80%< substrate protein remaining % ≤100%)”. In addition, the “GSPT1 substrate protein remaining %” value at GSPT1 was “A (0% ≤ substrate protein remaining % ≤80%)”.
